Values joined by “and” are separate entries in the source; they are usually repeats but may differ in a detail not shown here. Equal entries are not always repeated.
How the values were obtained:
CyclinA/cdk2 = CyclinA/cdk2 (Homo sapiens, UniProt P24941); assay: CyclinA/cdk2 protein kinase assay (histone H1 phosphorylation); details: IC50 CyclinA/cdk2, complex immunopurified from HeLa cells; 15 μM ATP; replicate experiments
CyclinE/cdk2 = CyclinE/cdk2 (Homo sapiens, UniProt P24941); assay: CyclinE/cdk2 protein kinase assay (histone H1 phosphorylation); details: IC50 CyclinE/cdk2, complex immunopurified from HeLa cells; 15 μM ATP; replicate experiments
HeLa S-3 cells = assay: Inhibition of cell growth of HeLa cells (SRB); assay type: cell-based, human; details: 2 days of treatment, replicate experiments
Protocol: Growth inhibition (GI50) values were measured with HeLa S-3 cells selected for growth on plastic. […] One day later, a control plate was fixed by addition of TCA to 5%. After five rinses with tap water the plate was air dried and stored at 4° C. Test compounds were added to the remaining plates at 10-fold dilutions between 0.01 and 100 μM. Two days later all plates were fixed as described above. Cells were then stained by the addition of 100 μl per well of 0.4% sulforhodamine B (SRB) in 1% acetic acid for 30 min at 4° C. Wells were then quickly rinsed 5×with acetic acid (1%) and allowed to air dry. The SRB was then solubilized by the addition of 100 μl per well of unbuffered 10 mM Tris base. Dye was quantified by measuring absorbance at 490 nm on a Molecular Devices kinetic microplate reader. Growth at each inhibitor concentration relative to the untreated control was calculated according to the following equation: percent growth=100×(T−To)/(C−To), where T was the average optical density (OD) of the test wells after 2 days of treatment, To was the average OD of the wells in the control plate on day 0 and C was the average OD of untreated wells. Plots of percent growth versus inhibitor concentration were used to determine the GI50.

[1] = test system: Tumor Cells in Hollow Fibers; assay: NCI Hollow Fiber Assay (in vivo evaluation)

Compound | GI50 (HeLa S-3 cells; Homo sapiens, HeLa S3, 48 h) [nM] | GI50 (HeLa S-3 cells) | other results
CC(C)n1cnc2c(NCc3ccc(I)cc3)nc(N[C@H]3CC[C@H](N)CC3)nc21 [Compound 11] | – | – | IC50 (CyclinA/cdk2): 200 nM; IC50 (CyclinE/cdk2): 70 nM
CC[C@H](CO)Nc1nc(NCc2ccc(-c3ccc(C(O)CO)cc3)cc2)c2ncn(C(C)C)c2n1 (stereo partly drawn) [Compound 34] | 7000 | – | –
CC[C@H](CO)Nc1nc(NCc2ccc(-c3cccc(N)c3)cc2)c2ncn(C(C)C)c2n1 [Compound 36] | 20000 | – | –
CC(=O)N[C@H]1CC[C@H](Nc2nc(NCc3ccc(-c4ccc(C)cc4)cc3)c3ncn(C(C)C)c3n2)CC1 [Compound 97] | 3000 | – | IC50 (CyclinA/cdk2): > 10000 nM; IC50 (CyclinE/cdk2): 3000 nM
CC(=O)N[C@H]1CC[C@H](Nc2nc(NCc3ccc(-c4ccc(F)cc4)cc3)c3ncn(C(C)C)c3n2)CC1 [Compound 102] | – | – | IC50 (CyclinA/cdk2): > 10000 nM; IC50 (CyclinE/cdk2): 4000 nM
CC(C)n1cnc2c(NCc3ccc(-c4ccccc4)cc3)nc(NC[C@H](C)N)nc21 [Compound 107] | – | – | IC50 (CyclinA/cdk2): 1000 nM and 4000 nM; IC50 (CyclinE/cdk2): 2000 nM
CC(=O)N[C@@H](C)CNc1nc(NCc2ccc(-c3ccccc3)cc2)c2ncn(C(C)C)c2n1 [Compound 108] | 3000 | – | IC50 (CyclinA/cdk2): > 10000 nM; IC50 (CyclinE/cdk2): > 10000 nM
CC(C)n1cnc2c(NCc3ccc(-c4cccc(Cl)c4)cc3)nc(N[C@H]3CC[C@H](N)CC3)nc21 [Compound 109] | – | – | IC50 (CyclinA/cdk2): 600 nM; IC50 (CyclinE/cdk2): 100 nM
CC(=O)N[C@H]1CC[C@H](Nc2nc(NCc3ccc(-c4cccs4)cc3)c3ncn(C(C)C)c3n2)CC1 [Compound 112] | – | – | Cell Types Killed [1]: OVCAR-3; IP Score ([1]; IP fibers): 18; SC score ([1]; SC fibers): 2; IC50 (CyclinA/cdk2): 2000 nM; IC50 (CyclinE/cdk2): 2000 nM
CC(C)n1cnc2c(NCc3cccc(-c4ccsc4)c3)nc(N[C@H]3CC[C@H](NC(=O)OC(C)(C)C)CC3)nc21 [Compound 130] | – | > 10000 nM | –
CC(C)n1cnc2c(NCc3cccc(-c4ccccc4)c3)nc(N[C@H]3CC[C@H](NC(=O)OC(C)(C)C)CC3)nc21 [Compound 133] | – | > 10000 nM | –
CCCN[C@H]1CC[C@H](Nc2nc(NCc3ccc(-c4cc(C)cc(C)c4)cc3)c3ncn(C(C)C)c3n2)CC1 [Compound 151] | 800 | 600 nM | –
CCCN(CCC)[C@H]1CC[C@H](Nc2nc(NCc3ccc(-c4cc(C)cc(C)c4)cc3)c3ncn(C(C)C)c3n2)CC1 [Compound 152] | – | 700 nM and 300 nM | –
CCCN[C@H]1CC[C@H](Nc2nc(NCc3ccc(-c4cc(OC)ccc4OC)cc3)c3ncn(C(C)C)c3n2)CC1 [Compound 155] | 500 | 800 nM | –
Cc1ccc(-c2ccc(CNc3nc(N[C@H]4CC[C@H](N)CC4)nc4c3ncn4C(C)C)cc2)s1 [Compound 157] | 500 | – | –
CC(=O)N[C@H]1CC[C@H](Nc2nc(NCc3ccc(-c4ccc(C)s4)cc3)c3ncn(C(C)C)c3n2)CC1 [Compound 158] | – | 600 nM | –
Cc1csc(-c2ccc(CNc3nc(N[C@H]4CC[C@H](N)CC4)nc4c3ncn4C(C)C)cc2)c1 [Compound 160] | 200 | – | –
CC(=O)N[C@H]1CC[C@H](Nc2nc(NCc3ccc(-c4cc(C)cs4)cc3)c3ncn(C(C)C)c3n2)CC1 [Compound 161] | – | 200 nM | –
CCCN[C@H]1CC[C@H](Nc2nc(NCc3ccc(-c4cc(C)cs4)cc3)c3ncn(C(C)C)c3n2)CC1 [Compound 162] | 200 | – | –
CC(C)n1cnc2c(NCc3ccc(-c4ccoc4)cc3)nc(N[C@H]3CC[C@H](N)CC3)nc21 [Compound 164] | 200 | – | –
CC(=O)N[C@H]1CC[C@H](Nc2nc(NCc3ccc(-c4ccoc4)cc3)c3ncn(C(C)C)c3n2)CC1 [Compound 165] | – | 200 nM and 100 nM | –
CC(=O)N[C@H]1CC[C@H](Nc2nc(NCc3ccc(-c4cccc(C)c4)cc3)c3ncn(C(C)C)c3n2)CC1 [Compound 178] | – | 200 nM | –
COc1cccc(-c2ccc(CNc3nc(N[C@H]4CC[C@H](NC(C)=O)CC4)nc4c3ncn4C(C)C)cc2)c1 [Compound 180] | – | 300 nM | –
CC(C)n1cnc2c(NCc3ccc(-c4ccco4)cc3)nc(N[C@H]3CC[C@H](N)CC3)nc21 [Compound 181] | 40 | – | –
CC(=O)N[C@H]1CC[C@H](Nc2nc(NCc3ccc(-c4ccco4)cc3)c3ncn(C(C)C)c3n2)CC1 [Compound 182] | 300 | – | –

Compound | GI50 (HeLa S-3 cells; Homo sapiens, HeLa S3, 48 h) [nM] | GI50 (HeLa S-3 cells) | other results
CC(C)n1cnc2c(NCc3ccc(-c4cccc(F)c4)nc3)nc(N[C@H]3CC[C@H](N)CC3)nc21 [Compound 187] | 50 | 30 nM | –
CC(=O)N[C@H]1CC[C@H](Nc2nc(NCc3ccc(-c4cccc(F)c4)nc3)c3ncn(C(C)C)c3n2)CC1 [Compound 188] | – | 200 nM and 70 nM | –
CC(C)n1cnc2c(NCc3ccc(-c4cccs4)nc3)nc(N[C@H]3CC[C@H](N)CC3)nc21 [Compound 199] | – | 200 nM and 90 nM | –
CC(=O)N[C@H]1CC[C@H](Nc2nc(NCc3ccc(-c4ccco4)nc3)c3ncn(C(C)C)c3n2)CC1 [Compound 206] | – | 200 nM | –
CCCNCCNc1nc(NCc2ccc(-c3ccccc3)cc2)c2ncn(C(C)C)c2n1 [Compound 209] | 2000 | – | –
CCCN(CCC)CCNc1nc(NCc2ccc(-c3ccccc3)cc2)c2ncn(C(C)C)c2n1 [Compound 210] | 3000 | – | –
CC(=O)NCCCCNc1nc(NCc2ccc(-c3ccccc3)cc2)c2ncn(C(C)C)c2n1 [Compound 214] | 5000 | – | –
CCCNCCCCNc1nc(NCc2ccc(-c3ccccc3)cc2)c2ncn(C(C)C)c2n1 [Compound 215] | 2000 | – | –
CC(C)n1cnc2c(NCc3ccc(-c4cccc(F)c4)nc3)nc(N[C@H]3CC[C@H](NC(=O)[C@H](C)NC(=O)OC(C)(C)C)CC3)nc21 [Compound 230] | 300 | – | –
CC(C)n1cnc2c(NCc3ccc(-c4cccc(F)c4)nc3)nc(N[C@H]3CC[C@H](NC(=O)[C@H](C)N)CC3)nc21 [Compound 231] | 40 | – | –
CC(C)n1cnc2c(NCc3ccc(-c4cccc(F)c4)nc3)nc(N[C@H]3CC[C@H](NC(=O)CNC(=O)OC(C)(C)C)CC3)nc21 [Compound 232] | 300 | – | –
CC(C)n1cnc2c(NCc3ccc(-c4cccc(F)c4)nc3)nc(N[C@H]3CC[C@H](NC(=O)CN)CC3)nc21 [Compound 233] | 500 | – | –
CC(C)n1cnc2c(NCCc3ccc(-c4ccccc4)cc3)nc(N[C@H]3CC[C@H](N)CC3)nc21 [Compound 239] | 6000 | – | –
CC(=O)N[C@H]1CC[C@H](Nc2nc(NCCc3ccc(-c4ccccc4)cc3)c3ncn(C(C)C)c3n2)CC1 [Compound 240] | – | 8000 nM | –
CC(C)n1cnc2c(NCCc3ccc(-c4ccsc4)cc3)nc(N[C@H]3CC[C@H](NC(=O)OC(C)(C)C)CC3)nc21 [Compound 242] | – | > 10000 nM | –
CC(=O)N[C@H]1CC[C@H](Nc2nc(NCCOc3ccc(-c4ccccc4)cc3)c3ncn(C(C)C)c3n2)CC1 [Compound 249] | > 10000 | – | –
CCCN[C@H]1CC[C@H](Nc2nc(NCCOc3ccc(-c4ccccc4)cc3)c3ncn(C(C)C)c3n2)CC1 [Compound 250] | – | 6000 nM | –
CC(Nc1nc(N[C@H]2CC[C@H](N)CC2)nc2c1ncn2C(C)C)c1ccc(-c2ccsc2)cc1 (stereo partly drawn) [Compound 257] | 3000 | – | –
COC(=O)N[C@H]1CC[C@H](Nc2nc(NCc3ccc(-c4ccccc4)cc3)c3ncn(C(C)C)c3n2)CC1 [Compound 259] | – | 300 nM and 700 nM | –
CC(C)n1cnc2c(NCc3ccc(-c4ccccc4)cc3)nc(N[C@H]3CC[C@H](NC(=O)C4CC4)CC3)nc21 [Compound 261] | – | 300 nM | –
CC(C)n1cnc2c(NCc3ccc(-c4ccccc4)cc3)nc(N[C@H]3CC[C@H](N4C(=O)CCC4=O)CC3)nc21 [Compound 262] | – | 300 nM and 200 nM and 500 nM | –
CC(C)n1cnc2c(NCc3ccc(-c4ccc(Cl)s4)cc3)nc(N[C@H]3CC[C@H](N)CC3)nc21 [Compound 264] | 300 | 500 nM | –
CC(=O)N[C@H]1CC[C@H](Nc2nc(NCc3ccc(-c4ccc(Cl)s4)cc3)c3ncn(C(C)C)c3n2)CC1 [Compound 265] | 300 | – | –
CCN(C(C)=O)[C@H]1CC[C@H](Nc2nc(NCc3ccc(-c4ccccc4)cc3)c3ncn(C(C)C)c3n2)CC1 [Compound 267] | – | 800 nM and 600 nM | –
CN1CC[C@H](c2c(O)cc(O)c3c(=O)cc(-c4ccccc4Cl)oc23)[C@H](O)C1 [Flavopiridol, reference compound] | 180 | – | –

— patent US20030087906A1, “NITROGEN SUBSTITUTED BIARYL PURINE DERIVATIVES AS POTENT ANTIPROLIFERATIVE AGENTS” (priority 2001, published 2003)
